Laboratory results as given in BindingDB's records for doi:10.1021/jm900431g (Boehringer Ingelheim Pharma, 2009).

Biological target: Vascular endothelial growth factor receptor 2 (Homo sapiens, UniProt P35968)
Test: Inhibition of human VEGFR2 expressed in Sf9 cells

Chain of Vascular endothelial growth factor receptor 2 (P35968 whole entry): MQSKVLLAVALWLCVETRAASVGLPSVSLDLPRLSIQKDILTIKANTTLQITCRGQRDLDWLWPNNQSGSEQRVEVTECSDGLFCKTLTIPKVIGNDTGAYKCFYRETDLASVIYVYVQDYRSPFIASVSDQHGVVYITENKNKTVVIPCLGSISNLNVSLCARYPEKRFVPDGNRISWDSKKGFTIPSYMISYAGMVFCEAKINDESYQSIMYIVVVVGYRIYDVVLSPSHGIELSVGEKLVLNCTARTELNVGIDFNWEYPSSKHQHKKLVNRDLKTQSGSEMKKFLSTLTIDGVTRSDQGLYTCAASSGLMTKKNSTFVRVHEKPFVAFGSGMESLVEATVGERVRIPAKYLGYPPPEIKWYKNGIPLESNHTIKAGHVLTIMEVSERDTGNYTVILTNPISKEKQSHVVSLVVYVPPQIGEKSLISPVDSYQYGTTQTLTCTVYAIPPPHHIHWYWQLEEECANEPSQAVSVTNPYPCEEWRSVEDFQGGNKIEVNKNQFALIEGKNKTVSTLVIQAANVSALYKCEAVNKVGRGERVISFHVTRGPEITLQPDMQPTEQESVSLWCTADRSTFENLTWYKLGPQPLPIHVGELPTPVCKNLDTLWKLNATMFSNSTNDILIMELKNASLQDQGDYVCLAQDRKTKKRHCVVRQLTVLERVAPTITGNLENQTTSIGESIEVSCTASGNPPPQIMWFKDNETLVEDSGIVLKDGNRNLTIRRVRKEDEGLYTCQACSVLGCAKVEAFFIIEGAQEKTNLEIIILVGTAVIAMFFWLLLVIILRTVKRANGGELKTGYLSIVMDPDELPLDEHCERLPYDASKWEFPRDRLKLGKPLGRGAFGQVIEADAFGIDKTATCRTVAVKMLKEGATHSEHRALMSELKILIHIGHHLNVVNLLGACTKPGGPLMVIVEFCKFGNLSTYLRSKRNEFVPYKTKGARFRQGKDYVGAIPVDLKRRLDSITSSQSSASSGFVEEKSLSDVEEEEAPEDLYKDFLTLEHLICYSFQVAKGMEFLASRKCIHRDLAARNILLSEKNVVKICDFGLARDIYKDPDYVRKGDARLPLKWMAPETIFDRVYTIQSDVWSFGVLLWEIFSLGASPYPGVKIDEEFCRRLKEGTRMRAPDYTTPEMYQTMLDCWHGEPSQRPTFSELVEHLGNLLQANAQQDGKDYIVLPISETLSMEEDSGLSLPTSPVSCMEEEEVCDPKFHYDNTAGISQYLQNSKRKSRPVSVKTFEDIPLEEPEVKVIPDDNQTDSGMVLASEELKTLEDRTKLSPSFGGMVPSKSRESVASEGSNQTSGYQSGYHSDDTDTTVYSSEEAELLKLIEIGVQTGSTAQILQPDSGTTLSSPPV

Row | IC50 | Structure (SMILES)
1 | > 10 µM | COC(=O)c1ccc2c(c1)NC(=O)C2C(=NC1CCC(NC(=O)CN(C)C)CC1)c1ccccc1 (stereo not drawn) [(Z)-methyl 3-((4-(2-(dimethylamino)acetamido)cyclohexylamino)(phenyl)methylene)-2-oxoindoline-6-carboxylate]
2 | 0.248 µM | N#Cc1ccc2c(c1)NC(=O)C2C(=Nc1ccc(CN2CCCCC2)cc1)c1ccccc1 (stereo not drawn) [(Z)-6-Cyano-3-[phenyl-(4-piperidin-1-ylmethyl-phenylamino)-methylene]-indolin-2-one]
3 | > 10 µM | COC(=O)c1ccc2c(c1)NC(=O)C2C(=NC1CCN(C)CC1)c1ccccc1 (stereo not drawn) [(Z)-3-[(1-Methylpiperidin-4-ylamino)-phenyl-methylene]-2-oxo-2,3-dihydro-1H-indole-6-carboxylic Acid Methyl Ester]
